ChEMBL document CHEMBL3046358, “Multiple Pro-197 substitutions in the acetolactate synthase of rigid ryegrass (Lolium rigidum) and their impact on chlorsulfuron activity and plant growth” (Crop Prot, 2012)

How the values were obtained:
[1] = test system: Lolium rigidum; experiment: Herbicidal activity against Lolium rigidum accession A07 assessed as emergence rate applied at 4 times pre-emergence recommended rate relative to untreated control; type: functional
[2] = test system: Lolium rigidum; experiment: Herbicidal activity against Lolium rigidum accession A05 assessed as emergence rate applied at 4 times pre-emergence recommended rate relative to untreated control; type: functional
[3] = test system: Lolium rigidum; experiment: Herbicidal activity against Lolium rigidum accession A03 assessed as emergence rate applied at 4 times pre-emergence recommended rate relative to untreated control; type: functional
[4] = target: T1, Acetolactate synthase (Lolium rigidum) (UniProt A7XBP7); experiment: Resistance index, ratio of I50 for acetolactate synthase Ala-197/Ala-197 mutant in Lolium rigidum accession A20 leaves extracts to I50 for acetolactate synthase in Lolium rigidum accession A01 leaves extracts
T1 sequence (whole entry): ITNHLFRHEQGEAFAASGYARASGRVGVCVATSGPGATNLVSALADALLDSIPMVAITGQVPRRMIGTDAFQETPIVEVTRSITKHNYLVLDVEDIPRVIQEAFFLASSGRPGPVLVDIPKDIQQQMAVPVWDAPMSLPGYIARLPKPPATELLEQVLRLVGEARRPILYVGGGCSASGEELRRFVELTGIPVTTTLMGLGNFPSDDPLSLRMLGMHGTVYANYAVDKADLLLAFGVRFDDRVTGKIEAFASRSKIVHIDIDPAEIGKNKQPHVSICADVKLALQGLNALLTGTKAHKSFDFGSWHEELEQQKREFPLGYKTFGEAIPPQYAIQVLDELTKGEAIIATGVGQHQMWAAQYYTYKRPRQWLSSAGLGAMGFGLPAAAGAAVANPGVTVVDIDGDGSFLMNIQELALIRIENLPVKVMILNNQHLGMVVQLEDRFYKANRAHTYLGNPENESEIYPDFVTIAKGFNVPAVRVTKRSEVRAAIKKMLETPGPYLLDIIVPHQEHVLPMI

[5] = target: T1, Acetolactate synthase (Lolium rigidum); experiment: Resistance index, ratio of I50 for acetolactate synthase Ala-197/Ala-197 mutant in Lolium rigidum accession A19 leaves extracts to I50 for acetolactate synthase in Lolium rigidum accession A01 leaves extracts
[6] = target: T1, Acetolactate synthase (Lolium rigidum); experiment: Resistance index, ratio of I50 for acetolactate synthase Pro-197/Arg-197 or Pro-197/Ser-197 or Pro/Val or Ala/Leu mutant in Lolium rigidum accession A17 leaves extracts to I50 for acetolactate synthase in Lolium rigidum accession A01 leaves extracts
[7] = target: T1, Acetolactate synthase (Lolium rigidum); experiment: Resistance index, ratio of I50 for acetolactate synthase Pro-197/Pro-197 mutant in Lolium rigidum accession A11 leaves extracts to I50 for acetolactate synthase in Lolium rigidum accession A01 leaves extracts
[8] = target: T1, Acetolactate synthase (Lolium rigidum); experiment: Resistance index, ratio of I50 for acetolactate synthase Pro-197/Pro-197 mutant in Lolium rigidum accession A10 leaves extracts to I50 for acetolactate synthase in Lolium rigidum accession A01 leaves extracts
[9] = target: T1, Acetolactate synthase (Lolium rigidum); experiment: Resistance index, ratio of I50 for acetolactate synthase Ala-197/Ala-197 mutant in Lolium rigidum accession A06 leaves extracts to I50 for acetolactate synthase in Lolium rigidum accession A01 leaves extracts
[10] = target: T2, Acetolactate synthase (Lolium rigidum, UniProt A7XBP7); experiment: Inhibition of acetolactate synthase Leu-197/Leu-197 mutant in Lolium rigidum accession A18 leaves extracts by acetolactate production assay; conditions: read-out: I50
[11] = target: Acetolactate synthase (Lolium rigidum, UniProt A7XBP7, P197R/P197S); experiment: Inhibition of acetolactate synthase Pro-197/Arg-197 or Pro-197/Ser-197 or Pro/Val or Ala/Leu mutant in Lolium rigidum accession A17 leaves extracts by acetolactate production assay; conditions: read-out: I50
[12] = test system: Lolium rigidum; experiment: Herbicidal activity against Lolium rigidum accession A11 assessed as emergence rate applied at 1 times pre-emergence recommended rate relative to untreated control; type: functional
[13] = test system: Lolium rigidum; experiment: Herbicidal activity against Lolium rigidum accession A10 assessed as emergence rate applied at 1 times pre-emergence recommended rate relative to untreated control; type: functional
[14] = test system: Lolium rigidum; experiment: Herbicidal activity against Lolium rigidum accession A04 assessed as emergence rate applied at 1 times pre-emergence recommended rate relative to untreated control; type: functional
[15] = target: T2, Acetolactate synthase; experiment: Inhibition of acetolactate synthase Pro-197/Pro-197 mutant in Lolium rigidum accession A09 leaves extracts by acetolactate production assay; conditions: read-out: I50
[16] = target: T3, Acetolactate synthase (Lolium rigidum, UniProt A7XBP7); experiment: Inhibition of acetolactate synthase in Lolium rigidum accession A01 leaves extracts by acetolactate production assay; conditions: read-out: I50
T3 sequence (A7XBP7 whole entry): T1 sequence (whole entry)

[17] = test system: Lolium rigidum; experiment: Herbicidal activity against Lolium rigidum accession A10 assessed as emergence rate applied at 1 times pre-emergence recommended rate applied in pots where terbufos had been incorporated into the soil relative to untreated control; type: functional
[18] = test system: Lolium rigidum; experiment: Herbicidal activity against Lolium rigidum accession A09 assessed as emergence rate applied at 1 times pre-emergence recommended rate applied in pots where terbufos had been incorporated into the soil relative to untreated control; type: functional
[19] = test system: Lolium rigidum; experiment: Herbicidal activity against Lolium rigidum accession A13 assessed as fresh weight reduction applied at 4 times pre-emergence recommended rate relative to untreated control; type: functional; set-up: scale not given: the % may be the effect or the level left
[20] = test system: Lolium rigidum; experiment: Herbicidal activity against Lolium rigidum accession A12 assessed as fresh weight reduction applied at 4 times pre-emergence recommended rate relative to untreated control; type: functional; set-up: scale not given: the % may be the effect or the level left
[21] = test system: Lolium rigidum; experiment: Herbicidal activity against Lolium rigidum accession A10 assessed as fresh weight reduction applied at 4 times pre-emergence recommended rate relative to untreated control; type: functional; set-up: scale not given: the % may be the effect or the level left
[22] = test system: Lolium rigidum; experiment: Herbicidal activity against Lolium rigidum accession A01 assessed as emergence rate applied at 4 times pre-emergence recommended rate relative to untreated control; type: functional
[23] = test system: Lolium rigidum; experiment: Herbicidal activity against Lolium rigidum accession A09 assessed as fresh weight reduction applied at 4 times pre-emergence recommended rate relative to untreated control; type: functional; set-up: scale not given: the % may be the effect or the level left
[24] = test system: Lolium rigidum; experiment: Herbicidal activity against Lolium rigidum accession A04 assessed as fresh weight reduction applied at 4 times pre-emergence recommended rate relative to untreated control; type: functional; set-up: scale not given: the % may be the effect or the level left
[25] = test system: Lolium rigidum; experiment: Herbicidal activity against Lolium rigidum accession A01 assessed as fresh weight reduction applied at 4 times pre-emergence recommended rate relative to untreated control; type: functional; set-up: scale not given: the % may be the effect or the level left
[26] = test system: Lolium rigidum; experiment: Herbicidal activity against Lolium rigidum accession A13 assessed as fresh weight reduction applied at 1 times pre-emergence recommended rate applied in pots where terbufos had been incorporated into the soil relative to untreated control; type: functional; set-up: scale not given: the % may be the effect or the level left
[27] = test system: Lolium rigidum; experiment: Herbicidal activity against Lolium rigidum accession A05 assessed as fresh weight reduction applied at 1 times pre-emergence recommended rate applied in pots where terbufos had been incorporated into the soil relative to untreated control; type: functional; set-up: scale not given: the % may be the effect or the level left
[28] = test system: Lolium rigidum; experiment: Herbicidal activity against Lolium rigidum accession A02 assessed as fresh weight reduction applied at 1 times pre-emergence recommended rate applied in pots where terbufos had been incorporated into the soil relative to untreated control; type: functional; set-up: scale not given: the % may be the effect or the level left
[29] = test system: Lolium rigidum; experiment: Herbicidal activity against Lolium rigidum accession A08 assessed as fresh weight reduction applied at 1 times pre-emergence recommended rate relative to untreated control; type: functional; set-up: scale not given: the % may be the effect or the level left
[30] = test system: Lolium rigidum; experiment: Herbicidal activity against Lolium rigidum accession A07 assessed as fresh weight reduction applied at 1 times pre-emergence recommended rate relative to untreated control; type: functional; set-up: scale not given: the % may be the effect or the level left
[31] = test system: Lolium rigidum; experiment: Herbicidal activity against Lolium rigidum accession A05 assessed as fresh weight reduction applied at 1 times pre-emergence recommended rate relative to untreated control; type: functional; set-up: scale not given: the % may be the effect or the level left
[32] = test system: Lolium rigidum; experiment: Herbicidal activity against Lolium rigidum accession A04 assessed as fresh weight reduction applied at 1 times pre-emergence recommended rate relative to untreated control; type: functional; set-up: scale not given: the % may be the effect or the level left
[33] = test system: Lolium rigidum; experiment: Herbicidal activity against Lolium rigidum accession A01 assessed as fresh weight reduction applied at 1 times pre-emergence recommended rate relative to untreated control; type: functional; set-up: scale not given: the % may be the effect or the level left

COc1nc(C)nc(NC(=O)NS(=O)(=O)c2ccccc2Cl)n1 [CHLORSULFURON]
Activity [1]: 34%
Activity [2]: 90%
Activity [3]: 1%
Ratio [4]: 36
Ratio [5]: 620
Ratio [6]: 29
Ratio [7]: 1
Ratio [8]: 1
Ratio [9]: 470
IC50 [10]: 1.62 µM
IC50 [11]: 0.87 µM
Activity [12]: 42%
Activity [13]: 68%
Activity [14]: 2%
IC50 [15]: 0.03 µM
IC50 [16]: 0.03 µM
Activity [17]: 3%
Activity [18]: 3%
Activity [19]: 99%
Activity [20]: 99%
Activity [21]: 100%
Activity [22]: 1%
Activity [23]: 95%
Activity [24]: 95%
Activity [25]: 99%
Activity [26]: 100%
Activity [27]: 0%
Activity [28]: 100%
Activity [29]: 9%
Activity [30]: 0%
Activity [31]: 0%
Activity [32]: 96%
Activity [33]: 98%
